# Assay results reported in patent US20060135483A1, “Oxygen/nitrogen heterocycle inhibitors of tyrosine phosphatases” (priority 2004, published 2006).
# pIC50: −log10 of the molar value.
# How the values were obtained:
# PTP-1B = target: T1, PTP-1B (Homo sapiens, UniProt P18031); test: pNPP assay for tyrosine phosphatase inhibitory activity; format: biochemical; conditions: Table 2; pNPP substrate 10 mM, 30° C., 10 minutes, absorbance at 405 nm
# T1 construct: PTP-1B (purified, 1 mg/mL) as a 1:250 dilution
# T1 sequence (P18031 1-321 limits assumed): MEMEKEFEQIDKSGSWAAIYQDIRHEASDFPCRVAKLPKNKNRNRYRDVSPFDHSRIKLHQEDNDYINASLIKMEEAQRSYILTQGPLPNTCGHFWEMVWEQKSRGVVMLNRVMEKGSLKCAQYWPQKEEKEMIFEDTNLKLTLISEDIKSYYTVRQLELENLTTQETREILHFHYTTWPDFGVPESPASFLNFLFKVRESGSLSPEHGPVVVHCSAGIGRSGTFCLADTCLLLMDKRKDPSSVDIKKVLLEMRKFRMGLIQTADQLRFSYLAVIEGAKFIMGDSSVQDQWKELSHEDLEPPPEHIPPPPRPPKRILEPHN
# Description: The compounds provided herein are evaluated for biological activity as inhibitors of PTP-1B using, for example, a pNPP assay. Such an assay can be used to screen compounds for tyrosine phosphatase inhibitory activity as shown in Example 39.
# A 5× stock of pNPP (p-nitrophenol phosphate) substrate is prepared as 50 mM pNPP in assay buffer. Various tyrosine phosphatase solutions can be prepared as follows: • PTP-1B (purified, 1 mg/mL) as a 1:250 dilution (to a final concentration of 4:g/mL); • TC-PTP (NEB, 1000 units in 100:L) as a 1:50 dilution (to a final concentration of 2 U/10:L (4:g/mL)); • CD45 (Calbiochem, 20:g, 400 units in 100: L) as a 1 :50 dilution (to a final concentration of 0.8 U/10:L (4:g/mL)); • LAR (NEB, 1000 units in 200:L) as a 1:75 dilution (to a final concentration of 0.7 U/10:L (4:g/mL)); and • PTP-β (UBI, #14-350, 10,000 units, 40:g/571:L) as a 1:17.5 dilution (to a final concentration of 10 U/10:L (4:g/mL));
# The compound to be tested is prepared as 1:16.7 and 1:50 dilutions from stock in a total volume of 1 00:M DMSO to give final concentrations of 626 and 200:M. The reaction mixtures are prepared in a 96-well microtiter plate (on ice) as 55:L assay buffer, 5:L of the diluted compound (to a final concentration of 31.3 and 10:M), 20:L of the pNPP substrate solution (to a final concentration of 10 mM) and 20:L PTPase in assay buffer. The reactants are mixed well, the plate placed in a water bath at 30° C. and incubated for 10 minutes. The reaction is then terminated by adding 1 OO:L of 2M K2CO3 per well, and the absorbance is measured at 405 nm by conventional means.
# Unless otherwise indicated, this assay was used to determine activity for the selected compounds whose activity is recorded in Table 1 and Table 2.
Compound,pIC50 (PTP-1B),melting point [°C]
"CS(=O)(=O)c1ccc(-c2cnc(N(Cc3ccc(C(F)(F)P(=O)(O)O)c(Cl)c3)c3ccc(Cl)c(Cl)c3)o2)cc1 [Example 31, {[2-Chloro-4-({(3,4-dichloro-phenyl)-[5-(4-methanesulfonyl-phenyl)-oxazol-2-yl]-amino}-methyl)-phenyl]-difluoro-methyl}-phosphonic acid]",6.30 to 7.00,141 to 143
CC(C)OC(=O)OC(C)OP(=O)(O)C(F)(F)c1ccc(CN(c2ccc(F)cc2)c2ncc(-c3ccc(S(C)(=O)=O)cc3)o2)cc1Br (centres unmarked) [{[2-Bromo-4-({(4-fluoro-phenyl)-[5-(4-methanesulfonyl-phenyl)-oxazol-2-yl]-amino}-methyl)-phenyl]-difluoro-methyl}-phosphonic acid mono-(1-isopropoxycarbonyloxy-ethyl) ester],4.00 to 5.00,
CCCCCCCCCCCCCCCCOCCCOP(=O)(O)C(F)(F)c1ccc(CN(c2ccc(F)cc2)c2ncc(-c3ccc(S(C)(=O)=O)cc3)o2)cc1Br [{[2-Bromo-4-({(4-fluoro-phenyl)-[5-(4-methanesulfonyl-phenyl)-oxazol-2-yl]-amino}-methyl)-phenyl]-difluoro-methyl}-phosphonic acid mono-(3-hexadecyloxy-propyl) ester],5.00 to 6.00,
CS(=O)(=O)c1ccc(-c2cnc(N(Cc3ccc(C(F)(F)P(=O)(O)Oc4ccccc4)c(Br)c3)c3ccc(F)cc3)o2)cc1 [{[2-Bromo-4-({(4-fluoro-phenyl)-[5-(4-methanesulfonyl-phenyl)-oxazol-2-yl]-amino}-methyl)-phenyl]-difluoro-methyl}-phosphonic acid monophenyl ester],4.00 to 5.00,

# Now from value to molecule:
pIC50 (PTP-1B),melting point [°C],Compound
6.00 to 6.30,,CS(=O)(=O)c1ccc(CN(Cc2ccc(C(F)(F)P(=O)(O)O)c(Br)c2)c2ncc(-c3ccc(S(C)(=O)=O)cc3)o2)cc1 [{[2-Bromo-4-({(4-methanesulfonyl-benzyl)-[5-(4-methanesulfonyl-phenyl)-oxazol-2-yl]-amino}-methyl)-phenyl]-difluoro-methyl}-phosphonic acid]
6.30 to 7.00,,CS(=O)(=O)c1ccc(-c2cnc(N(Cc3ccc(C(F)(F)P(=O)(O)O)c(Cl)c3)c3ccc(F)cc3)o2)cc1 [{[2-Chloro-4-({(4-fluoro-phenyl)-[5-(4-methanesulfonyl-phenyl)-oxazol-2-yl]-amino}-methyl)-phenyl]-difluoro-methyl}-phosphonic acid]
6.30 to 7.00,,CS(=O)(=O)c1ccc(-c2cnc(N(Cc3ccc(C(F)(F)P(=O)(O)O)c(Cl)c3)c3ccccc3)o2)cc1 [{[2-Chloro-4-({(5-(4-methanesulfonyl-phenyl)-oxazol-2-yl]-phenyl-amino}-methyl)-phenyl]-difluoro-methyl}-phosphonic acid]
